Data reported in patent publication US6339042B1, “Herbicidal N-cyclohexadienyl heteroaryloxyacetamides” (American Cyanamid Co., priority 1999, dated 2002).

Assays:
Conditions in all cases: three weeks after treatment
Amaranthus tuberculatus [1] = assay: Pre-emergence herbicidal evaluation, AMATA; assay type: in vivo
Text: (§1) The treated pots are then placed on greenhouse benches, watered and cared for in accordance with conventional greenhouse procedures.

Galium aparine [2] = assay: Pre-emergence herbicidal evaluation, GALAP; assay type: in vivo
Text: as §1

Alopecurus myosuroides [3] = assay: Pre-emergence herbicidal evaluation, ALOMY; assay type: in vivo
Text: as §1

Apera spica venti [4] = assay: Pre-emergence herbicidal evaluation, APESV; assay type: in vivo
Text: as §1

Echinochloa crus-galli [5] = assay: Pre-emergence herbicidal evaluation, ECHCG; assay type: in vivo
Text: as §1

Setaria viridis [6] = assay: Pre-emergence herbicidal evaluation, SETVI; assay type: in vivo
Text: as §1

Lolium perenne [7] = assay: Pre-emergence herbicidal evaluation, LOLPE; assay type: in vivo
Text: as §1

Triticum aestivum [8] = assay: Pre-emergence herbicidal evaluation, TRZAW; assay type: in vivo
Text: as §1

Hordeum vulgare [9] = assay: Pre-emergence herbicidal evaluation, HORVW; assay type: in vivo
Text: as §1

Zea mays [10] = assay: Pre-emergence herbicidal evaluation, ZEAMX; assay type: in vivo
Text: as §1

Glycine max [11] = assay: Pre-emergence herbicidal evaluation, GLXMA; assay type: in vivo
Text: as §1

Oryza sativum [12] = assay: Pre-emergence herbicidal evaluation, ORYSA; assay type: in vivo
Text: as §1

Amaranthus tuberculatus [13] = assay: Post-emergence herbicidal evaluation, AMATA; assay type: in vivo
Galium aparine [14] = assay: Post-emergence herbicidal evaluation, GALAP
Alopecurus myosuroides [15] = assay: Post-emergence herbicidal evaluation, ALOMY
Apera spica venti [16] = assay: Post-emergence herbicidal evaluation, APESV
Echinochloa crus-galli [17] = assay: Post-emergence herbicidal evaluation, ECHCG
Setaria viridis [18] = assay: Post-emergence herbicidal evaluation, SETVI
Lolium perenne [19] = assay: Post-emergence herbicidal evaluation, LOLPE
Procedure: (§2) Each pot is examined three weeks after treatment and phytotoxicity is assessed according to the rating system set forth below.
(§3) These acetone solutions are diluted with water and the resulting formulations applied at dosage levels equivalent of about 0.4 to 0.1 kg per hectare of test compound per pot. After spraying the plants are placed on greenhouse benches and are cared for in the usual manner, commensurate with conventional greenhouse practices.

Triticum aestivum [20] = assay: Post-emergence herbicidal evaluation, TRZAW
Hordeum vulgare [21] = assay: Post-emergence herbicidal evaluation, HORVW
Zea mays [22] = assay: Post-emergence herbicidal evaluation, ZEAMX
Procedure: as §2, §3

Glycine max [23] = assay: Post-emergence herbicidal evaluation, GLXMA
Oryza sativum [24] = assay: Post-emergence herbicidal evaluation, ORYSA
Procedure: The compounds of the invention are tested for pre- and post-emergence herbicidal activity.
as §2, §3

## CCN(C(=O)COc1nnc(C(F)(F)F)s1)C1=CC(C)(C)CC(C)=C1 [Example 1]
Amaranthus tuberculatus [1]; 0.100 kg/ha
  phytotoxicity rating AMATA: 0 (0 - No effect)
Amaranthus tuberculatus [1]; 0.200 kg/ha
  phytotoxicity rating AMATA: 3 (3 - Moderate effect)
Amaranthus tuberculatus [1]; 0.400 kg/ha
  phytotoxicity rating AMATA: 9 (9 - Complete kill)
Amaranthus tuberculatus [1]; 0.800 kg/ha
  phytotoxicity rating AMATA: 9 (9 - Complete kill)
Galium aparine [2]; 0.100 kg/ha
  phytotoxicity rating GALAP: 0 (0 - No effect)
Galium aparine [2]; 0.200 kg/ha
  phytotoxicity rating GALAP: 4 (4 - Injury)
Galium aparine [2]; 0.400 kg/ha
  phytotoxicity rating GALAP: 4 (4 - Injury)
Galium aparine [2]; 0.800 kg/ha
  phytotoxicity rating GALAP: 4 (4 - Injury)
Alopecurus myosuroides [3]; 0.100 kg/ha
  phytotoxicity rating ALOMY: 2 (2 - Slight effect)
Alopecurus myosuroides [3]; 0.200 kg/ha
  phytotoxicity rating ALOMY: 3 (3 - Moderate effect)
Alopecurus myosuroides [3]; 0.400 kg/ha
  phytotoxicity rating ALOMY: 9 (9 - Complete kill)
Alopecurus myosuroides [3]; 0.800 kg/ha
  phytotoxicity rating ALOMY: 7 (7 - Good herbicidal effect)
Apera spica venti [4]; 0.100 kg/ha
  phytotoxicity rating APESV: 6 (6 - Herbicidal effect)
Apera spica venti [4]; 0.200 kg/ha
  phytotoxicity rating APESV: 8 (8 - Approaching complete kill)
Apera spica venti [4]; 0.400 kg/ha
  phytotoxicity rating APESV: 9 (9 - Complete kill)
Apera spica venti [4]; 0.800 kg/ha
  phytotoxicity rating APESV: 9 (9 - Complete kill)
Echinochloa crus-galli [5]; 0.100 kg/ha
  phytotoxicity rating ECHCG: 4 (4 - Injury)
Echinochloa crus-galli [5]; 0.200 kg/ha
  phytotoxicity rating ECHCG: 8 (8 - Approaching complete kill)
Echinochloa crus-galli [5]; 0.400 kg/ha
  phytotoxicity rating ECHCG: 9 (9 - Complete kill)
Echinochloa crus-galli [5]; 0.800 kg/ha
  phytotoxicity rating ECHCG: 9 (9 - Complete kill)
Setaria viridis [6]; 0.100 kg/ha
  phytotoxicity rating SETVI: 4 (4 - Injury)
Setaria viridis [6]; 0.200 kg/ha
  phytotoxicity rating SETVI: 7 (7 - Good herbicidal effect)
Setaria viridis [6]; 0.400 kg/ha
  phytotoxicity rating SETVI: 8 (8 - Approaching complete kill)
Setaria viridis [6]; 0.800 kg/ha
  phytotoxicity rating SETVI: 8 (8 - Approaching complete kill)
Lolium perenne [7]; 0.100 kg/ha
  phytotoxicity rating LOLPE: 2 (2 - Slight effect)
Lolium perenne [7]; 0.200 kg/ha
  phytotoxicity rating LOLPE: 3 (3 - Moderate effect)
Lolium perenne [7]; 0.400 kg/ha
  phytotoxicity rating LOLPE: 9 (9 - Complete kill)
Lolium perenne [7]; 0.800 kg/ha
  phytotoxicity rating LOLPE: 9 (9 - Complete kill)
Triticum aestivum [8]; 0.100 kg/ha
  phytotoxicity rating TRZAW: 0 (0 - No effect)
Triticum aestivum [8]; 0.200 kg/ha
  phytotoxicity rating TRZAW: 0 (0 - No effect)
Triticum aestivum [8]; 0.400 kg/ha
  phytotoxicity rating TRZAW: 2 (2 - Slight effect)
Triticum aestivum [8]; 0.800 kg/ha
  phytotoxicity rating TRZAW: 4 (4 - Injury)
Hordeum vulgare [9]; 0.100 kg/ha
  phytotoxicity rating HORVW: 2 (2 - Slight effect)
Hordeum vulgare [9]; 0.200 kg/ha
  phytotoxicity rating HORVW: 2 (2 - Slight effect)
Hordeum vulgare [9]; 0.400 kg/ha
  phytotoxicity rating HORVW: 4 (4 - Injury)
Hordeum vulgare [9]; 0.800 kg/ha
  phytotoxicity rating HORVW: 4 (4 - Injury)
Zea mays [10]; 0.100 kg/ha
  phytotoxicity rating ZEAMX: 0 (0 - No effect)
Zea mays [10]; 0.200 kg/ha
  phytotoxicity rating ZEAMX: 0 (0 - No effect)
Zea mays [10]; 0.400 kg/ha
  phytotoxicity rating ZEAMX: 2 (2 - Slight effect)
Zea mays [10]; 0.800 kg/ha
  phytotoxicity rating ZEAMX: 4 (4 - Injury)
Glycine max [11]; 0.100 kg/ha
  phytotoxicity rating GLXMA: 0 (0 - No effect)
Glycine max [11]; 0.200 kg/ha
  phytotoxicity rating GLXMA: 0 (0 - No effect)
Glycine max [11]; 0.400 kg/ha
  phytotoxicity rating GLXMA: 2 (2 - Slight effect)
Glycine max [11]; 0.800 kg/ha
  phytotoxicity rating GLXMA: 2 (2 - Slight effect)
Oryza sativum [12]; 0.100 kg/ha
  phytotoxicity rating ORYSA: 0 (0 - No effect)
Oryza sativum [12]; 0.200 kg/ha
  phytotoxicity rating ORYSA: 0 (0 - No effect)
Oryza sativum [12]; 0.400 kg/ha
  phytotoxicity rating ORYSA: 3 (3 - Moderate effect)
Amaranthus tuberculatus [13]; 0.100 kg/ha
  phytotoxicity rating AMATA: 0 (0 - No effect)
Amaranthus tuberculatus [13]; 0.200 kg/ha
  phytotoxicity rating AMATA: 0 (0 - No effect)
Amaranthus tuberculatus [13]; 0.400 kg/ha
  phytotoxicity rating AMATA: 0 (0 - No effect)
Galium aparine [14]; 0.100 kg/ha
  phytotoxicity rating GALAP: 0 (0 - No effect)
Galium aparine [14]; 0.200 kg/ha
  phytotoxicity rating GALAP: 0 (0 - No effect)
Galium aparine [14]; 0.400 kg/ha
  phytotoxicity rating GALAP: 1 (1 - Trace effect)
Alopecurus myosuroides [15]; 0.100 kg/ha
  phytotoxicity rating ALOMY: 6 (6 - Herbicidal effect)
Alopecurus myosuroides [15]; 0.200 kg/ha
  phytotoxicity rating ALOMY: 6 (6 - Herbicidal effect)
Alopecurus myosuroides [15]; 0.400 kg/ha
  phytotoxicity rating ALOMY: 8 (8 - Approaching complete kill)
Apera spica venti [16]; 0.100 kg/ha
  phytotoxicity rating APESV: 5 (5 - Definite injury)
Apera spica venti [16]; 0.200 kg/ha
  phytotoxicity rating APESV: 8 (8 - Approaching complete kill)
Apera spica venti [16]; 0.400 kg/ha
  phytotoxicity rating APESV: 8 (8 - Approaching complete kill)
Echinochloa crus-galli [17]; 0.100 kg/ha
  phytotoxicity rating ECHCG: 2 (2 - Slight effect)
Echinochloa crus-galli [17]; 0.200 kg/ha
  phytotoxicity rating ECHCG: 4 (4 - Injury)
Echinochloa crus-galli [17]; 0.400 kg/ha
  phytotoxicity rating ECHCG: 7 (7 - Good herbicidal effect)
Setaria viridis [18]; 0.100 kg/ha
  phytotoxicity rating SETVI: 0 (0 - No effect)
Setaria viridis [18]; 0.200 kg/ha
  phytotoxicity rating SETVI: 2 (2 - Slight effect)
Setaria viridis [18]; 0.400 kg/ha
  phytotoxicity rating SETVI: 3 (3 - Moderate effect)
Lolium perenne [19]; 0.100 kg/ha
  phytotoxicity rating LOLPE: 6 (6 - Herbicidal effect)
Lolium perenne [19]; 0.200 kg/ha
  phytotoxicity rating LOLPE: 8 (8 - Approaching complete kill)
Lolium perenne [19]; 0.400 kg/ha
  phytotoxicity rating LOLPE: 8 (8 - Approaching complete kill)
Triticum aestivum [20]; 0.100 kg/ha
  phytotoxicity rating TRZAW: 0 (0 - No effect)
Triticum aestivum [20]; 0.200 kg/ha
  phytotoxicity rating TRZAW: 0 (0 - No effect)
Triticum aestivum [20]; 0.400 kg/ha
  phytotoxicity rating TRZAW: 1 (1 - Trace effect)
Hordeum vulgare [21]; 0.100 kg/ha
  phytotoxicity rating HORVW: 0 (0 - No effect)
Hordeum vulgare [21]; 0.200 kg/ha
  phytotoxicity rating HORVW: 0 (0 - No effect)
Hordeum vulgare [21]; 0.400 kg/ha
  phytotoxicity rating HORVW: 0 (0 - No effect)
Zea mays [22]; 0.100 kg/ha
  phytotoxicity rating ZEAMX: 0 (0 - No effect)
Zea mays [22]; 0.200 kg/ha
  phytotoxicity rating ZEAMX: 0 (0 - No effect)
Zea mays [22]; 0.400 kg/ha
  phytotoxicity rating ZEAMX: 0 (0 - No effect)
Glycine max [23]; 0.100 kg/ha
  phytotoxicity rating GLXMA: 4 (4 - Injury)
Glycine max [23]; 0.200 kg/ha
  phytotoxicity rating GLXMA: 5 (5 - Definite injury)
Glycine max [23]; 0.400 kg/ha
  phytotoxicity rating GLXMA: 4 (4 - Injury)
Oryza sativum [24]; 0.100 kg/ha
  phytotoxicity rating ORYSA: 0 (0 - No effect)
Oryza sativum [24]; 0.200 kg/ha
  phytotoxicity rating ORYSA: 0 (0 - No effect)
Oryza sativum [24]; 0.400 kg/ha
  phytotoxicity rating ORYSA: 3 (3 - Moderate effect)
